Measured values published in the NIST ThermoML archive (doi:10.1016/j.jct.2005.03.016).

Assay: xn = mol fraction of the nth substance listed
Conditions: Liquid, Vibrating tube method

CC1CCCCC1 [methylcyclohexane] + CCO
mass density [kg/m3]
Conditions	100 kPa	5000 kPa	10000 kPa	15000 kPa	20000 kPa	25000 kPa	30000 kPa	35000 kPa	40000 kPa	45000 kPa
313.15 K, x2 = 0.5	–	–	–	–	–	–	–	–	–	790.2
313.15 K, x2 = 0.625	–	–	–	–	–	–	–	–	–	792.6
313.15 K, x2 = 0.75	–	–	–	–	–	–	–	–	–	795.8
313.15 K, x2 = 0.875	–	–	–	–	–	–	–	–	–	800.4
323.15 K, x2 = 0	742.9	747.7	752.5	756.9	761.1	765.1	769	772.6	776.1	779.5
323.15 K, x2 = 0.052	742	746.9	751.7	756.3	760.5	764.5	768.4	772.1	775.6	779.1
323.15 K, x2 = 0.125	741.9	746.8	751.7	756.2	760.5	764.6	768.5	772.2	775.7	779.2
323.15 K, x2 = 0.25	742.4	747.4	752.3	756.8	761.2	765.3	769.2	772.9	776.5	780
323.15 K, x2 = 0.375	743.4	748.5	753.4	758	762.4	766.5	770.4	774.2	777.8	781.2
323.15 K, x2 = 0.5	745	750.1	755	759.6	764	768.2	772.1	775.9	779.5	783
323.15 K, x2 = 0.625	747.4	752.4	757.4	762	766.4	770.5	774.5	778.2	781.9	785.3
323.15 K, x2 = 0.75	750.7	755.7	760.6	765.2	769.6	773.7	777.7	781.5	785.1	788.6
323.15 K, x2 = 0.875	755.6	760.6	765.5	770.1	774.4	778.5	782.4	786.2	789.8	793.3
333.15 K, x2 = 0	733.9	739	744.1	748.8	753.3	757.5	761.5	765.4	769	772.5
333.15 K, x2 = 0.052	732.8	738.1	743.2	748	752.5	756.8	760.9	764.7	768.5	772
333.15 K, x2 = 0.125	732.4	737.8	742.9	747.8	752.3	756.6	760.7	764.6	768.4	771.9
333.15 K, x2 = 0.25	732.7	738.1	743.3	748.2	752.8	757.1	761.3	765.2	769	772.6
333.15 K, x2 = 0.375	733.7	739.1	744.4	749.3	753.9	758.3	762.4	766.4	770.2	773.8
333.15 K, x2 = 0.5	735.3	740.7	746	750.9	755.6	759.9	764.1	768.1	771.9	775.5
333.15 K, x2 = 0.625	737.6	743	748.3	753.3	757.9	762.3	766.4	770.4	774.2	777.9
333.15 K, x2 = 0.75	741	746.4	751.6	756.6	761.2	765.5	769.7	773.7	777.5	781.1
333.15 K, x2 = 0.875	746	751.4	756.6	761.5	766	770.4	774.5	778.4	782.2	785.9
343.15 K, x2 = 0	724.8	730.4	735.8	740.8	745.6	750	754.2	758.2	762.1	765.7
343.15 K, x2 = 0.052	723.4	729.1	734.6	739.7	744.5	749	753.3	757.4	761.3	765
343.15 K, x2 = 0.125	722.8	728.6	734.1	739.3	744.2	748.7	753	757.1	761	764.8
343.15 K, x2 = 0.25	722.9	728.7	734.3	739.6	744.5	749.1	753.5	757.6	761.5	765.3
343.15 K, x2 = 0.375	723.8	729.6	735.3	740.5	745.5	750.1	754.5	758.6	762.6	766.4
343.15 K, x2 = 0.5	725.3	731.2	736.9	742.1	747.1	751.7	756.1	760.3	764.3	768.1
343.15 K, x2 = 0.625	727.6	733.5	739.2	744.4	749.4	754	758.4	762.6	766.6	770.4
343.15 K, x2 = 0.75	731.1	736.9	742.5	747.8	752.7	757.3	761.7	765.9	769.8	773.6
343.15 K, x2 = 0.875	736.3	742.1	747.6	752.8	757.7	762.3	766.6	770.8	774.7	778.4
353.15 K, x2 = 0	715.7	721.7	727.4	732.8	737.8	742.5	747	751.2	755.2	759
353.15 K, x2 = 0.052	–	720.2	726	731.5	736.6	741.3	745.8	750.1	754.2	758
353.15 K, x2 = 0.125	–	719.3	725.3	730.8	736	740.8	745.3	749.6	753.7	757.7
353.15 K, x2 = 0.25	–	719.2	725.2	730.8	736	740.9	745.5	749.9	754	758
353.15 K, x2 = 0.375	–	719.9	726	731.7	736.9	741.8	746.4	750.8	755	759
353.15 K, x2 = 0.5	–	721.4	727.5	733.1	738.4	743.4	748	752.4	756.6	760.6
353.15 K, x2 = 0.625	–	723.7	729.8	735.4	740.7	745.6	750.3	754.6	758.8	762.8
353.15 K, x2 = 0.75	–	727.1	733.2	738.8	744	748.9	753.6	757.9	762.1	766.1
353.15 K, x2 = 0.875	–	732.5	738.4	743.9	749.1	753.9	758.5	762.9	767	771
